According to patent US20210300940A1 (Merck Patent GmbH, priority 2018, published 2021):

Columns and labels:
[1] = target: T1, TLR7 (Homo sapiens, UniProt Q9NYK1); assay: HEK/293 TLR7 Cell Assay; format: cell-based; conditions: TLR7/NFKb HEK cells, R848 agonist 10 uM final concentration, Steady-Glo readout; read-out: TLR7 potency
T1 construct: expressed in transfected cells; host or cells: HEK/293 cells carrying TLR7 and an NF-kB luciferase reporter
T1 sequence (Q9NYK1 27-1049): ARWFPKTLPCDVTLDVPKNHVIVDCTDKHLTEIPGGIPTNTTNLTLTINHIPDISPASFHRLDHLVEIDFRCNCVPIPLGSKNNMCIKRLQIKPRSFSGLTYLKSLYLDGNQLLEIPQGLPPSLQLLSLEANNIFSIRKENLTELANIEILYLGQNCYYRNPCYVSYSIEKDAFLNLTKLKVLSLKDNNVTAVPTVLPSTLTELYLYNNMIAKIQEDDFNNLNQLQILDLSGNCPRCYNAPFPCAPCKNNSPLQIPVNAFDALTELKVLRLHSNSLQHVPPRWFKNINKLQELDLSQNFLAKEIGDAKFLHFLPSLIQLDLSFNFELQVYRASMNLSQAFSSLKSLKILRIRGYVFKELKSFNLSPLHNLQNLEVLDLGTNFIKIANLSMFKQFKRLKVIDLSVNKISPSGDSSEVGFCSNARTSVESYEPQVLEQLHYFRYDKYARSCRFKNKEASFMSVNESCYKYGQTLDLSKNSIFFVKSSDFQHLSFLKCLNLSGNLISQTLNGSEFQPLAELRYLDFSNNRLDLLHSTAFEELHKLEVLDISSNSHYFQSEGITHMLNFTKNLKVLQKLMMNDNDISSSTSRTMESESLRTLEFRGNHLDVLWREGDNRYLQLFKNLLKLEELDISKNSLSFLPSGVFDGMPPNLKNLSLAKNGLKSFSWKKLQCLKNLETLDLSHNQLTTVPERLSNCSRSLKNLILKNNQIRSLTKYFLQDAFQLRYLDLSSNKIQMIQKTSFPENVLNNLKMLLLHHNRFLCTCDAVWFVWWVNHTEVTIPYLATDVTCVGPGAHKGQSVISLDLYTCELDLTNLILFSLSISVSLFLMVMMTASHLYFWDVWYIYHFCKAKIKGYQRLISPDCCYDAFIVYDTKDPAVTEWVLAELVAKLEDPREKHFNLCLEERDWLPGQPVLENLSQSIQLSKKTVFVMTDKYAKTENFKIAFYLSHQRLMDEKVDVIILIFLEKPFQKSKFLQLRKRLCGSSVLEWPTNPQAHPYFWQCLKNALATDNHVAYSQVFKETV
Procedure: (§1) Example 389: HEK/293 TLR7 Cell Assay Into 384 CulturePlates (Corning 3765) was placed 5000 c/w of TLR7/NFKb HEK cells in 30 uL DMEM without Phenol red (gibco #31053-028) and 10% heat inactivated fetal bovine serum, 10% penicillin-streptomycin, and 2 mM L-Glutamine. The cells were incubated for 24 h at 37° C., 10% carbon dioxide and 90% relative humidity. 3 uL of controls, standards, and compounds were dispensed into wells, incubated for 30 min then 3 uL of R848 agonist (10 uM final concentration) was added in 20 mM Hepes. After incubation for 5 hours, they were allowed to stand at room temperature for 15 min. To this was added 10 uL of Steady-Glo substrate reagent and shake assay plate for 5 min at 1500 rpm. The assay plate was allowed to sit for 30 min at room temperature and then the plate was read on EnVision.

[2] = target: T2, TLR8 (Homo sapiens, UniProt Q9NR97); assay: HEK/293 TLR8 Cell Assay; format: cell-based; conditions: HEK cells, R848 agonist 30 uM final concentration, Steady-Glo readout; read-out: TLR8 potency
T2 construct: expressed in transfected cells; host or cells: HEK/293 reporter cells (NF-kB luciferase)
T2 sequence (Q9NR97 27-1041): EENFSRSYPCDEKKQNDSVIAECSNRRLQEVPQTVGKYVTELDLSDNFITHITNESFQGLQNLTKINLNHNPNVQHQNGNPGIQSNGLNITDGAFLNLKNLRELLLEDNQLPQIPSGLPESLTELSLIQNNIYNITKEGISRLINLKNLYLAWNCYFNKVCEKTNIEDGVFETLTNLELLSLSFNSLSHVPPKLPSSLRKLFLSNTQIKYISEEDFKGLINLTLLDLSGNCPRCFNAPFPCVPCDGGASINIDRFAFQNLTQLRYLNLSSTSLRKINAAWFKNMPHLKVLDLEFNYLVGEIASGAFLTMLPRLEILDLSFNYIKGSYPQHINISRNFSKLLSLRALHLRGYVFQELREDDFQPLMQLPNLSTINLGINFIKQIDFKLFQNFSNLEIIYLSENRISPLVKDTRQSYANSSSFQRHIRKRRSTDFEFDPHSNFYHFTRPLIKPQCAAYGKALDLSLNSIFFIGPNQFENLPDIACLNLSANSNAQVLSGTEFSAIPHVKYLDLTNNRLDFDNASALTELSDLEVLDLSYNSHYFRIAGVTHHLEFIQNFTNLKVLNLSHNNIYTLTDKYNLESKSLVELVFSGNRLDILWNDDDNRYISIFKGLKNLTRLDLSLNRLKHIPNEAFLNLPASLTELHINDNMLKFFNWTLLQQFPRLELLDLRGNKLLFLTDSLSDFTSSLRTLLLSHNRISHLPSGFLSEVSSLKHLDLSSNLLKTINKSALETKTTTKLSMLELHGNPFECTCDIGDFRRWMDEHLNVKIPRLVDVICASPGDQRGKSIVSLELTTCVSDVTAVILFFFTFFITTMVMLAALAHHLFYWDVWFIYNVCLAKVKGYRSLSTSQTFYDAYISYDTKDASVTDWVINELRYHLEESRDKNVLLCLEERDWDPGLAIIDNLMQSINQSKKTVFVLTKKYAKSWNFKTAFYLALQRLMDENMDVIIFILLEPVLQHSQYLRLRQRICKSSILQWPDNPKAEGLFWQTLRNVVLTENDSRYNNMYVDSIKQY
Procedure: as §1, with “Example 390:” for “Example 389:”, “HEK/293 TLR8” for “HEK/293 TLR7”, “serum, 1%” for “serum, 10%”, “agonist (30” for “agonist (10”

| SMILES | IC50 [1] [nM] | IC50 [2] [nM] |
| --- | --- | --- |
| N#Cc1ccc(N2C[C@@H](C(F)(F)F)O[C@@H](C(=O)N[C@H]3CNC[C@H]3F)C2)c2nccnc12 (single isomer, unassigned) [Example 303] | < 75 | < 75 |
| C[C@@H]1CN(c2ccc(C#N)c3ncncc23)C[C@H](C(=O)NC[C@H]2CN(C)CCO2)O1 [Example 267, (2R,6R)-4-(8-Cyano-quinazolin-5-yl)-6-methyl-morpholine-2-carboxylic acid ((S)-4-methyl-morpholin-2-ylmethyl)-amide] | < 75 | < 75 |
| C[C@H]1C[C@@H](NC(=O)CC2CN(C)C2)CN(c2cc(F)c(C#N)c3ncccc23)C1 [Example 59, N-[(3R,5S)-1-(8-Cyano-7-fluoro-quinolin-5-yl)-5-methyl-piperidin-3-yl]-2-(1-methyl-azetidin-3-yl)-acetamide] | 75 to 150 | > 150 |
| C[C@H]1C[C@@H](NCC(C)(C)O)CN(c2ccc(C#N)c3nccnc23)C1 [Example 16, 8-[(3R,5S)-3-(2-Hydroxy-2-methyl-propylamino)-5-methyl-piperidin-1-yl]-quinoxaline-5-carbonitrile formic acid] | < 75 | < 75 |
| C[C@@H]1CN(c2ccc(C#N)c3nccnc23)C[C@H](C(=O)N2CC3(C2)CS(=O)(=O)C3)O1 [Example 251, 8-[(2R,6R)-2-(2,2-Dioxo-2lambda6-thia-6-aza-spiro[3.3]heptane-6-carbonyl)-6-methyl-morpholin-4-yl]-quinoxaline-5-carbonitrile] | > 150 | > 150 |
| C[C@@H]1CN(c2ccc(C#N)c3ncncc23)C[C@H](CN2CCN(C)CC2)O1 [Example 224, 5-[(2R,6S)-2-Methyl-6-(4-methyl-piperazin-1-ylmethyl)-morpholin-4-yl]-quinazoline-8-carbonitrile] | < 75 | > 150 |
| CN(C)CCNC(=O)N[C@@H]1C[C@H](C(F)(F)F)CN(c2ccc(C#N)c3ncccc23)C1 [Example 143, 1-[(3R,5S)-1-(8-cyanoquinolin-5-yl)-5-(trifluoromethyl)piperidin-3-yl]-3-[2-(dimethylamino)ethyl]urea] | < 75 | 75 to 150 |
| N#Cc1ccc(N2C[C@H](NCC3CCCNC3)C[C@H](C(F)(F)F)C2)c2cccnc12 (stereo partly drawn) [Example 152, 5-{(3R,5S)-3-[(Piperidin-3-ylmethyl)-amino]-5-trifluoromethyl-piperidin-1-yl}-quinoline-8-carbonitrile] | 75 to 150 | 75 to 150 |
| C[C@H]1C[C@@H](NC(=O)[C@H](C)N2CCN(C)CC2)CN(c2ccc(C#N)c3nccnc23)C1 (single isomer, unassigned) [Example 91] | < 75 | < 75 |
| CN(C)CCC(=O)N[C@@H]1C[C@H](C(F)(F)F)CN(c2ccc(C(F)(F)F)c3ncccc23)C1 [Example 64, 3-(dimethylamino)-N-[(3R,5S)-5-(trifluoromethyl)-1-[8-(trifluoromethyl)quinolin-5-yl]piperidin-3-yl]propanamide] | < 75 | < 75 |
| CC(C)(O)CNC(=O)[C@@H]1CN(c2ccc(C#N)c3nccnc23)C[C@H](C(F)(F)F)O1 (single isomer, unassigned) [Example 285] | > 150 | > 150 |
| N#Cc1ncc(N2C[C@@H](C(=O)NCC3(F)CCNCC3)O[C@@H](C(F)(F)F)C2)c2cccnc12 (single isomer, unassigned) [Example 318] | > 150 | > 150 |
| C[C@H]1C[C@@H](NC(=O)CC2(F)CCN(C)CC2)CN(c2ccc(C#N)c3ncncc23)C1 [Example 88, N-[(3R,5S)-1-(8-cyanoquinazolin-5-yl)-5-methylpiperidin-3-yl]-2-(4-fluoro-1-methylpiperidin-4-yl)acetamide] | < 75 | < 75 |
| C[C@H]1C[C@@H](NC(=O)[C@@H]2COCCN2)CN(c2ccc(C#N)c3nccnc23)C1 [Example 208, (3S)—N-[(3R,5S)-1-(8-cyanoquinoxalin-5-yl)-5-methylpiperidin-3-yl]morpholine-3-carboxamide] | 75 to 150 | < 75 |
